Measured values as given in patent publication US20240226318A1, “ANTIBODY DRUG CONJUGATE TARGETING NECTIN 4 AND PREPARATION METHOD THEREFOR AND USE THEREOF” (JIANGSU MABWELL HEALTH PHARMACEUTICAL R&D CO., LTD., priority 2021, published 2024).
Blank lines part the entries; values can stand above or below the substance they belong to.

Legend:
MDA-MB-468 cells = experiment: In vivo efficacy, breast cancer animal model MDA-MB-468 (Group 4 Example 1); set-up: species or system Nude mice (BALB/cJGpt-Foxn1nu/Gpt); details: MDA-MB-468 model; for TV(D0): D0 baseline; for PR (D21), partial tumor regression: 8 animals per group
Source text: (§1) MIDA-MB-468 cells, i.e. human breast carcinoma cells (purchased from ATCC), NCI-H322 cells, i.e. lung cancer cells (purchased from ATCC), and T24/nectin-4, i.e. bladder cancer cells (available from the cell bank of the Chinese Academy of Science) were utilized respectively to inoculate Nude mice (BALB/cJGpt-Foxn1nu/Gpt, 4-5 weeks old) for establishing mouse models.
(§2) The antibody-drug conjugate 3d and the control drug PADCVE (Enfortumab Vedotin, purchased from Seattle Gentics) were grouped and studied (as shown in Table 9 below). The mice were intravenously injected (IV) in a volume of 10 mL/kg, respectively; and the mice of the vehicle group were intravenously injected the same volume of vehicle (physiological saline). Tumor volumes were measured 2 times per week, and the mice were weighed and the data was recorded.
(§3) When the experiment was finished, the experimental endpoint was reached, or if the tumor volume reached 1500 mm^3, the animals were sacrificed under CO2 anesthesia and the tumors were dissected and photographed.
(§4) The method for evaluating in vivo efficacy was the same as described in Section 3.3 in the Group 3 of Examples.
A mouse model was established using MDA-MB-468 cells and ADCs 3d and PADCVE were grouped and studied, as described in sections 4.1 and 4.2 in the present Group 4 of Examples.

NCI-H322 cells = experiment: In vivo efficacy, lung cancer animal model NCI-H322; set-up: species or system Nude mice (BALB/cJGpt-Foxn1nu/Gpt)
Source text: as §1, §2, §3, §4
A mouse model was established using NCI-H322 cells and ADCs 3d and PADCVE were grouped and studied, as described in sections 4.1 and 4.2 in the present Group 4 of Examples.

T24/nectin-4 cells = experiment: In vivo efficacy, bladder cancer animal model T24/nectin-4; set-up: species or system Nude mice (BALB/cJGpt-Foxn1nu/Gpt); details: T24/nectin-4 model; for Average weight (g) at the beginning / Average weight (g) at the end: mouse body weight
Source text: as §1, §2, §3, §4
A mouse model was established using T24/nectin-4 cells and ADCs 3d and PADCVE were grouped and studied, as described in sections 4.1 and 4.2 in the present Group 4 of Examples.

[1] = target: T1, recombinant extra-cellular domain of human Nectin-4 protein (Homo sapiens, UniProt Q96NY8); experiment: BIAcore affinity for the antigen; type: binding; details: human Nectin-4, pH 7.4
T1 construct: recombinant extra-cellular domain of human Nectin-4 protein; purchased Novoprotein Scientific Inc
T1 sequence (Q96NY8 32-349 limits assumed): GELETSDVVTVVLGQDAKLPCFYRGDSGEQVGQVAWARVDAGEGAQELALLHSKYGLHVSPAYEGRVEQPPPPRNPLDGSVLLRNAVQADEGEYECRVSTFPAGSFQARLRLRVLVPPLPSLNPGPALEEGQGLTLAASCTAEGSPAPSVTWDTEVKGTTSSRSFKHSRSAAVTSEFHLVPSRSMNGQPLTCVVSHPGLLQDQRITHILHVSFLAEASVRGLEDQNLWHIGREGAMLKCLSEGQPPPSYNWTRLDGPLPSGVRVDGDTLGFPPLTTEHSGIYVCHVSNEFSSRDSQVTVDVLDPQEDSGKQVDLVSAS
Method: Human Nectin-4 protein (purchased from Novoprotein Scientific Inc.) was subjected to buffer exchange with a desalting column using running reagent 1 (10 mM N-(2-hydroxyethyl)piperazine-N-2 sulfonic acid, 150 mM sodium chloride, 3 mM ethylene diamine tetraacetic acid, 0.005% Tween-20, with pH adjusted to 7.4). Samples to be detected were diluted to 5 μg/mL with the running reagent 1, and sequentially injected to the experimental channels with His capture chips at a flow rate of […] for about 400 RU. The capture of the ligand was not required for the reference channel. The human Nectin-4 protein was diluted to 50, 25, 12.5, 6.25, 3.125, 1.563, 0.781, 0.391, and 0 nM with the corresponding running reagent, and then the diluted human Nectin-4 protein was injected into the experimental channels and the reference channel at a flow rate of 30 μL/min. The association and dissociation time were 120 sec and 300 sec, respectively. The Biocore 8K analysis software was used to calculate KD values for each antibody. The reference channel was used for background subtraction.

FcRn [2] = target: T2, FcRn (Homo sapiens, UniProt P55899); experiment: BIAcore affinity for Fc receptor FcRn; type: binding; details: pH 6.0
Method: (§5) Human FcγR I (CD64), FcγR IIa (CD32a (H167)), FcγR IIb (CD32b), and FcγR IIIa (CD16a (V176)) proteins were diluted to 0.25 μg/mL with running reagent 1 (10 mM N-(2-hydroxyethyl)piperazine-N-2 sulfonic acid, 150 mM sodium chloride, 3 mM ethylene diamine tetraacetic acid, 0.005% Tween-20, with pH adjusted to 7.4), and FcRn protein was diluted to 0.25 μg/mL with running reagent 2 (2 mM sodium dihydrogen phosphate, 10 mM disodium hydrogen phosphate, 137 mM sodium chloride, 2.7 mM potassium chloride, 0.05% tween-20, with pH adjusted to 6.0) and all the diluted proteins were sequentially injected to the experimental channels with His capture chips (FC2) at a flow rate of […] for about 40 RU. The capture of the ligands was not required for the reference channel (FC1). Samples to be detected were diluted with corresponding running reagents, and then were injected into the experimental channels and the reference channel at a flow rate of 30 μL/min. Association and dissociation was monitored for certain time periods. The Biocore 8K analysis software was used to calculate KD values for each antibody. The reference channel (FC1) was used for background subtraction.

human FcγR I (CD64) [3] = target: T3, human FcγR I (CD64) (Homo sapiens, UniProt P12314); experiment: BIAcore affinity for Fc receptor FcγRI; type: binding; details: pH 7.4
Method: as §5

[4] = target: T4, human FcγR IIa (human CD32a (H167)) (Homo sapiens, UniProt P12318); experiment: BIAcore affinity for Fc receptor FcγRIIa; type: binding; details: pH 7.4
T4 sequence (P12318 36-218 limits assumed): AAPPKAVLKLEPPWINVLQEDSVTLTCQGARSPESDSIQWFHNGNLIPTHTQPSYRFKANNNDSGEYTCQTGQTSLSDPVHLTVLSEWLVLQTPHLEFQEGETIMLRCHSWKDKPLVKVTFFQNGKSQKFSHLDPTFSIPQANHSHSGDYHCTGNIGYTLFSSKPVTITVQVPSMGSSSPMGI
Method: as §5

[5] = target: T5, human FcγR IIb (human CD32b) (Homo sapiens, UniProt P31994); experiment: BIAcore affinity for Fc receptor FcγRIIb; type: binding; details: pH 7.4
T5 sequence (P31994 43-310): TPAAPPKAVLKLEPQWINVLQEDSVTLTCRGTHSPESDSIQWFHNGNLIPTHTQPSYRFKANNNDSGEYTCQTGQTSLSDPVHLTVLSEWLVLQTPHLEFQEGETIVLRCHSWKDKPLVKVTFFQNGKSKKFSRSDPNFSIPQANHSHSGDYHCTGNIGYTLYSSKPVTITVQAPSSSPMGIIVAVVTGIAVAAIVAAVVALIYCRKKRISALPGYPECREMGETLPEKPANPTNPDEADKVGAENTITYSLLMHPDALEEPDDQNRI
Method: as §5

PC-3-Nectin4(2-4) cells = experiment: Internalization activity, flow cytometry; type: cell-based
Method: Experiment method was as follows: the target cells at the logarithmic stage of growth were harvested by centrifugation, adjusted to a density of 5×10^5 cells/mL in complete medium (F-12K medium containing 10% FBS and 250 μg/ml G418). 1 mL of the cell suspension obtained was pipetted into EP tubes, i.e., 5×10^5 cells in each, which were then centrifuged. The supernatant was discarded and the cells were washed twice with PBS. […] (as the control group) and 37° C. (as the experiment groups) respectively. After incubation for 2 h, a fluorescently labeled secondary antibody, goat anti human IgG Fc-FITC (purchased from Sigma) was added and incubated for 1 h at 4° C. After the incubation, the fluorescence intensity was measured with a flow cytometer, and the internalization efficiency of each of the samples was calculated by the formula as follows: percent internalization at the time point tx=(1−the fluorescence intensity of the sample at 37° C./the fluorescence intensity of the sample at 4° C.)×100% (tx is the incubation time period x of the sample with the cells).

[6] = cited from earlier work
[7] = target: Nectin-4 on stably transfected PC-3-Nectin4(2-4) cells (UniProt Q96NY8); experiment: cell-based or functional assay
FcRn [8] = target: T2, FcRn; experiment: BIAcore (SPR), FcRn captured on His capture chip, pH 6.0, ADC injected
human FcγR I (CD64) [9] = target: T3, human FcγR I (CD64); experiment: BIAcore (SPR), Fc receptor captured on His capture chip, pH 7.4, ADC injected
[10] = target: human FcγR IIa (human CD32a (H167)) (human) (UniProt P12318); experiment: as above
[11] = target: human FcγR IIb (human CD32b) (human) (UniProt P31994); experiment: as above
[12] = target: Nectin-4 on stably transfected PC-3-Nectin4(2-4) cells (UniProt Q96NY8); experiment: flow cytometry on PC-3-Nectin4(2-4) cells, 2 h at 4° C., anti-human IgG Fc-FITC
[13] = target: recombinant extra-cellular domain of human Nectin-4 protein (human) (UniProt Q96NY8); experiment: BIAcore (SPR), ADC captured on chip, human Nectin-4 protein injected at 0.391-50 nM

Substance: PADCEV
TV(D0) (MDA-MB-468 cells; 3 mg/kg IV at D0): 133.1 mm^3
T/C (%) (D21) (MDA-MB-468 cells; 3 mg/kg IV at D0): 63%
TGI % (D21) (MDA-MB-468 cells; 3 mg/kg IV at D0): 37%
TV(D21) (MDA-MB-468 cells; 3 mg/kg IV at D0): 516.4 mm^3
PR (D21), partial tumor regression (MDA-MB-468 cells; 3 mg/kg IV at D0): 0
TV(D0) (MDA-MB-468 cells; 10 mg/kg IV at D0): 139.5 mm^3
T/C (%) (D21) (MDA-MB-468 cells; 10 mg/kg IV at D0): 28%
TGI % (D21) (MDA-MB-468 cells; 10 mg/kg IV at D0): 72%
TV(D21) (MDA-MB-468 cells; 10 mg/kg IV at D0): 309.5 mm^3
PR (D21), partial tumor regression (MDA-MB-468 cells; 10 mg/kg IV at D0): 0
TV(D0) (NCI-H322 cells; 3 mg/kg IV at D0, D0 baseline): 125.1 mm^3
T/C (%) (D21) (NCI-H322 cells; 3 mg/kg IV at D0, D21): 36%
TGI % (D21) (NCI-H322 cells; 3 mg/kg IV at D0, D21): 64%
TV(D21) (NCI-H322 cells; 3 mg/kg IV at D0, D21): 325.9 mm^3
PR (D21), partial tumor regression (NCI-H322 cells; 3 mg/kg IV at D0, D21, 8 animals per group): 0
TV(D0) (NCI-H322 cells; 10 mg/kg IV at D0, D0 baseline): 124.1 mm^3
T/C (%) (D21) (NCI-H322 cells; 10 mg/kg IV at D0, D21): −23%
TGI % (D21) (NCI-H322 cells; 10 mg/kg IV at D0, D21): 123%
TV(D21) (NCI-H322 cells; 10 mg/kg IV at D0, D21): 95.9 mm^3
PR (D21), partial tumor regression (NCI-H322 cells; 10 mg/kg IV at D0, D21, 8 animals per group): 7
Average tumor weight (g) (D22) (T24/nectin-4 cells; 3 mg/kg IV at D0): 0.23 g
TGI (%) (D22) (T24/nectin-4 cells; 3 mg/kg IV at D0): 90.7%
Average weight (g) at the beginning (T24/nectin-4 cells; 3 mg/kg IV at D0): 22.0 g
Average weight (g) at the end (T24/nectin-4 cells; 3 mg/kg IV at D0): 23.0 g
Average tumor weight (g) (D22) (T24/nectin-4 cells; 10 mg/kg IV at D0): 0.09 g
TGI (%) (D22) (T24/nectin-4 cells; 10 mg/kg IV at D0): 96.3%
Average weight (g) at the beginning (T24/nectin-4 cells; 10 mg/kg IV at D0): 22.0 g
Average weight (g) at the end (T24/nectin-4 cells; 10 mg/kg IV at D0): 23.3 g
Kd [1]: 4.87 nM
ka [1]: 1.05e+06 M⁻¹ s⁻¹
kd [1]: 0.00512 s⁻¹
Kd (FcRn [2]): 513 nM
Kd (human FcγR I (CD64) [3]): 12.3 nM
Kd [4]: 2770 nM
Kd [5]: 16300 nM
Average fluorescence intensity 4° C. (PC-3-Nectin4(2-4) cells; 2 h at 4° C. (control group), average): 83966
Median fluorescence intensity 4° C. (PC-3-Nectin4(2-4) cells; 2 h at 4° C. (control group), median): 78925
Average fluorescence intensity 37° C. (PC-3-Nectin4(2-4) cells; 2 h at 37° C., average): 33129
Median fluorescence intensity 37° C. (PC-3-Nectin4(2-4) cells; 2 h at 37° C., median): 25038
adverse reactions accompanying treatment ([6]; clinical studies): fever, skin itching, peripheral neuropathy, dry eyes, neutrocytopenia
medium overall survival ([6]; patients receiving chemotherapy and PD-1/PD-L1 inhibitor regimens): 12.9 months
overall survival longer than chemotherapy control group ([6]; versus patients receiving chemotherapy in the control group): 3.9 months

Fluorescence intensity at 37° C. (Average), surface antibody left after internalization [7]: 33100
Fluorescence intensity at 37° C. (Median), surface antibody left after internalization [7]: 25000
Kd (FcRn [8]): 513 nM
Kd (human FcγR I (CD64) [9]): 12.3 nM
Kd [10]: 2770 nM
Kd [11]: 16300 nM
fluorescence intensity at 4° C. (Average) [12]: 84000
fluorescence intensity at 4° C. (Median) [12]: 78900
Kd [13]: 4.87 nM
Substance: PADCEV (Enfortumab Vedotin, purchased from Seattle Genetics) (antibody)
